Read-outs that look alike come from different tables or passages of the source.
How the values were obtained:
Solubility = format: physicochemical
in vivo = conditions: mouse

Structure (SMILES): CCCCC1C(=O)OC(CCCNC(=N)N)C(C)C(O)C(C)C=C(C)CCCCC(O)CC(O)CC(O)CC(O)CC(O)C(OC2OC(CO)C(O)C2O)C=C(C)C(O)CCCC(O)CCCC(O)CCC(C)C1O (stereo not shown) [Pseudo-primycin-A1-acetate]
- solubility in ethanol (Solubility; ethanol): 5 g/10 ml
- solubility in methanol (Solubility; methanol): 10 g/10 ml
- solubility in water (Solubility; water): 5 g/10 ml
- LD50 (in vivo; iv, female mice, read-out: LD50 values i.v. female): 18.8 mg/kg
- LD50 (in vivo; iv, male mice, read-out: LD50 values i.v. male): 17.7 mg/kg
- LD50 (in vivo; po, female mice, read-out: LD50 values p.o. female): 1580 mg/kg
- LD50 (in vivo; po, male mice, read-out: LD50 values p.o. male): 1720 mg/kg
